According to patent US20250052744A1, “Dyes and Uses Thereof” (The University of Liverpool, priority 2021, published 2025):

Columns and labels:
Assay in all cases: Qualitative dye staining on agarose pads (EVOS M7000)
Format in all cases: cell-based
Parameters in all cases: key to Relative fluorescent intensity: Very high: If the cells looked twice as big in the fluorescent channel, it was marked as having “very high” relative fluorescent intensity; High: if the cells looked bigger in the fluorescent channel, it was marked as having “high” relative fluorescent intensity; Medium: If the cells looked almost the same size in the fluorescent channel and the bright field, it was marked as having “medium” relative fluorescent intensity; Low: If the cells looked smaller in the fluorescent channel as compared to the brightfield but still the whole cell was visible, it was marked as having “low” relative fluorescent intensity; Negligible: If only a few traces of a cell was visible in the fluorescent channel, it was marked as having “negligible” relative fluorescent intensity
Conditions in all cases: DiSC3(5) 3 μM, SYBR Green I 10×, SYTO 13 3 μM, FM4-64 15 μM
Klebsiella oxytoca = test system: Klebsiella oxytoca
Proteus mirabilis = test system: Proteus mirabilis
Escherichia coli = test system: Escherichia coli
[1] = Table 8 sample Klebsiella oxytoca (091)
[2] = Table 8 sample Klebsiella oxytoca (092)
[3] = Table 8 sample Klebsiella oxytoca (093)
[4] = Table 7 commercial strain Proteus mirabilis NCTC 10975
[5] = Table 7 commercial strain Proteus mirabilis NCTC 11938
[6] = Table 8 sample Proteus mirabilis (021)
[7] = Table 8 sample Proteus mirabilis (022)
[8] = Table 8 sample Proteus mirabilis (023)
[9] = Table 6 thresholds, Escherichia coli
[10] = Table 7 commercial strain E. coli SEC 27
[11] = Table 7 commercial strain E. coli SEC 93
[12] = Table 8 sample Escherichia coli (051)
[13] = Table 8 sample Escherichia coli (052)
[14] = Table 8 sample Escherichia coli (053)

Compound	Percentage of cells stained (Klebsiella oxytoca; [1])	Relative fluorescent intensity (Klebsiella oxytoca; [1])	Percentage of cells stained (Klebsiella oxytoca; [2])	Relative fluorescent intensity (Klebsiella oxytoca; [2])	Percentage of cells stained (Klebsiella oxytoca; [3])	Relative fluorescent intensity (Klebsiella oxytoca; [3])	Percentage of cells stained (Proteus mirabilis; [4])	Relative fluorescent intensity (Proteus mirabilis; [4])	Percentage of cells stained (Proteus mirabilis; [5])	Relative fluorescent intensity (Proteus mirabilis; [5])	Percentage of cells stained (Proteus mirabilis; [6])	Relative fluorescent intensity (Proteus mirabilis; [6])	Percentage of cells stained (Proteus mirabilis; [7])	Relative fluorescent intensity (Proteus mirabilis; [7])	Percentage of cells stained (Proteus mirabilis; [8])	Relative fluorescent intensity (Proteus mirabilis; [8])	Percentage of cells stained (Escherichia coli; [9])	Relative fluorescent intensity (Escherichia coli; [9])	Percentage of cells stained (Escherichia coli; [10])	Relative fluorescent intensity (Escherichia coli; [10])	other results
CCCN1C(=CC=CC=Cc2sc3ccccc3[n+]2CCC)Sc2ccccc21.[I-] [DiSC3(5), 3,3′-Dipropylthiadicarbocyanine Iodide]	Almost all	Medium	Almost all	Low	Half	Low	Almost all	Medium	Almost all	Low	Almost all	Low	Almost all	Medium	Almost all	Medium	Almost all	Medium	Almost all	Medium	Percentage of cells stained (Escherichia coli; [11]): Almost all; Relative fluorescent intensity (Escherichia coli; [11]): Medium; Percentage of cells stained (Escherichia coli; [12]): Almost all; Relative fluorescent intensity (Escherichia coli; [12]): Medium; Percentage of cells stained (Escherichia coli; [13]): Almost all; Relative fluorescent intensity (Escherichia coli; [13]): Medium; Percentage of cells stained (Escherichia coli; [14]): Almost all; Relative fluorescent intensity (Escherichia coli; [14]): Medium
CCN(CC)c1ccc(C=CC=CC=Cc2cc[n+](CCC[N+](CC)(CC)CC)cc2)cc1.[Br-].[Br-] [FM 4-64, N-(3-Triethylammoniumpropyl)-4-(6-(4-(Diethylamino) Phenyl) Hexatrienyl) Pyridinium Dibromide]	Few	Low	Almost all	Low	Half	Low	Few	Negligible	Few	Negligible	Few	Negligible	Few	Negligible	Few	Negligible	Almost all	Medium	Almost all	Medium	Percentage of cells stained (Escherichia coli; [11]): Almost all; Relative fluorescent intensity (Escherichia coli; [11]): Medium; Percentage of cells stained (Escherichia coli; [12]): Almost all; Relative fluorescent intensity (Escherichia coli; [12]): Medium; Percentage of cells stained (Escherichia coli; [13]): Almost all; Relative fluorescent intensity (Escherichia coli; [13]): Medium; Percentage of cells stained (Escherichia coli; [14]): Almost all; Relative fluorescent intensity (Escherichia coli; [14]): Medium
CCCN(CCCN(C)C)c1cc(/C=C2/Sc3ccccc3N2C)c2ccccc2[n+]1-c1ccccc1 [SYBR Green I, N′,N′-dimethyl-N-[4-[(E)-(3-methyl-1,3-benzothiazol-2-ylidene)methyl]-1-phenylquinolin-1-ium-2-yl]-N-propylpropane-1,3-diamine]	Almost all	Low	Almost all	Low	Half	Low	Half	Low	Half	Low	Half	Low	Half	Low	Half	Low	Almost all	Medium	Almost all	Medium	Percentage of cells stained (Escherichia coli; [11]): Almost all; Relative fluorescent intensity (Escherichia coli; [11]): Medium; Percentage of cells stained (Escherichia coli; [12]): Almost all; Relative fluorescent intensity (Escherichia coli; [12]): Medium; Percentage of cells stained (Escherichia coli; [13]): Almost all; Relative fluorescent intensity (Escherichia coli; [13]): Medium; Percentage of cells stained (Escherichia coli; [14]): Almost all; Relative fluorescent intensity (Escherichia coli; [14]): Medium
